Values joined by “and” are separate entries in the source; they are usually repeats but may differ in a detail not shown here. Equal entries are not always repeated.

In general, IC50 refers to the concentration at which inhibition is half-maximal. Usually EC50 stands for the concentration that produces a half-maximal response. A word on the half-life: it is the time needed for the level to fall by half in the phase considered. A high value points to slow loss. In general, fraction remaining refers to what is left of the initial amount, in per cent. A lower fraction remaining goes with a greater loss.

One data set in a line: in vitro. As to conditions: chlorocebus sabaeus.
The target of the next data set is SARS-CoV-2 Mpro (3CLpro) (Severe acute respiratory syndrome coronavirus 2, UniProt P0DTD1). The data set is described as follows: SARS-CoV-2 recombinant protease enzymatic assay (FRET). The format is biochemical. To be noted: for IC50: recombinant Mpro, FRET peptide substrate.
Data set [1] deals with SARS-CoV-2-Nluc reporter virus. The data set is described as follows: microbe, parasite or virus in culture. The format is cell-based. To be noted: for EC50: Severe acute respiratory syndrome coronavirus 2, VeroE6/TMPRSS2 cells, parentheses denote 95% confidence intervals.
A short description of data set [2]: Mouse liver microsome stability assay. In general terms: Microsomes from liver hold many membrane-bound enzymes, among them those of drug oxidation.
Procedure: Metabolic Stability Assay
(§1) Liver Microsome Stability Assay Protocol
(§2) Human liver microsomes (HLMs, 20 mg/mL), CD-1 mouse liver microsomes (MLMs, 20 mg/mL), Sprague Dawley
(§3) rat liver microsomes (RLMs, 20 mg/mL) were purchased from Xenotech. NADPH was purchased from Sigma-
(§4) Aldrich and prepared in 10 mM stock solutions of distilled H2O (InvitrogenTM UltraPureTM). Verapamil and
(§5) diphenhydramine were both purchased from Sigma-Aldrich and served as positive controls for LM stability assays.
(§6) Test compounds and positive controls were initially dissolved in DMSO to make 10 mM stock solutions. Sample
(§7) solutions were then further diluted in 100% MeCN to 500 μM. Next, the reactions were prepared by mixing human
(§8) or mouse liver microsomes (55 μL) with potassium phosphate buffer (100 mM, 928 μL) in 1.5 mL Eppendorf tubes.
(§9) The test compounds (6.6 μL of 500 μM solution) were subsequently added to the suspensions, and the reaction
(§10) mixtures were incubated at 37 °C for 5 min. Afterward, the liver microsome reactions were initiated with 110 μL
(§11) of 10 mM NADPH and further incubated at 37 °C for the designated time course of the study. This procedure
(§12) provided experiments with a final volume of 1100 μL (0.6% organic solvent content) and a final test compound
(§13) concentration of 3 μM. Aliquots (100 μL) were removed from each reaction mixture in duplicate at 0, 5, 10, 15,
(§14) and 30 min time intervals and quenched with 100 μL of cold internal standard solution (ISTD, 2 μM
(§15) 7-ethoxy-d 5-coumarin in MeOH or MeCN). Quenched aliquots were then centrifuged at 12,500 g for 5-10 min, and
(§16) the resulting supernatants were withdrawn and placed in LC-MS vials to be analyzed by LC-MS/MS (Agilent
(§17) G6460C QQQ MS coupled with an Infinity II 1260 HPLC). Each test compound was run in tandem with positive and
(§18) negative control experiments for quality assurance. Positive control reactions were conducted at a final volume
(§19) of 550 μL for a single run of each time point. Lastly, the negative control experiment was conducted with test
(§20) compounds and liver microsomes in the absence of NADPH (150 μL) and analyzed at the 30 min time point.
(§21) Data Analysis. Each data point was analyzed in triplicate using in-between blank washes to avoid carry over and
(§22) to equilibrate the column for the subsequent runs. Averages of these triplicates for individual compounds at each
(§23) time point were then normalized to the data at 0 min, representing 100% test compound remaining or 0%
(§24) metabolism. Half-lives (t 1/2) were calculated by plotting ln of % test compound remaining versus time and
(§25) performing linear regression to determine slope.
(§26) Instrumentation and LC-MS/MS Method Development
(§27) LC-MS/MS analyses were conducted on an Agilent 1260 Infinity II HPLC equipped with an Agilent G6460 triple
(§28) quadrupole mass spectrometer (Agilent Technologies, USA). Reverse-phase HPLC separation for each compound
(§29) m) column maintained at 40 °C. The mobile phase used during analyses consisted of either MeOH-H2O (0.1% FA)
(§30) or MeCN-H2O (0.1% FA) at a flow rate of 0.5 mL/min. Each method was developed in the presence of the internal
(§31) standard (ISTD), 7-ethoxy-d 5-coumarin. Precursor and product ion detection was performed with Agilent Jet
(§32) Stream electrospray positive ionization (ESI+) in multiple reaction monitoring (MRM) mode. All MRM transitions,
(§33) MS conditions were as follows: dwell time of 100 ms; gas flow of 10 L/min; nebulizer pressure of 45 psi; delta EMV
(§34) of 200 V. Lastly, all acquired data was processed using Agilent 6460 Quantitative Analysis software.
Data set [3] can be described thus: Rat liver microsome stability assay. To be noted: 37 °C.
Procedure: Metabolic Stability Assay
as §1, §2, §3, §4, §5, §6, §7, §8, §9, §10, §11, §12, §13, §14, §15, §16, §17, §18, §19, §20, §21, §22, §23, §24, §25, §26, §27, §28, §29, §30, §31, §32, §33, §34
The nature of data set [4]: Human liver microsome stability assay.
Procedure: Metabolic Stability Assay
as §1, §2, §3, §4, §5, §6, §7, §8, §9, §10, §11, §12, §13, §14, §15, §16, §17, §18, §19, §20, §21, §22, §23, §24, §25, §26, §27, §28, §29, §30, §31, §32, §33, §34

In turn, `O=c1[nH]cccc1-c1cn(-c2cc(Cl)cc(Cl)c2)c(=O)n(-c2cccnc2)c1=O` [Compound 6] yielded a CC50 in “in vitro” of more than 100000 nM. At SARS-CoV-2 Mpro (3CLpro), the IC50 is 276 nM and 280 nM. Also, in data set [1], the “EC50 range in words” value is “sub-micromolar” and the EC50 came to 500 nM.
Regarding `O=c1ccc(-c2cn(-c3cc(Cl)cc(Cl)c3)c(=O)n(-c3cccnc3)c2=O)c[nH]1` [Compound 7], in the data set “in vitro”, the CC50 was more than 100000 nM. Besides, the IC50 at SARS-CoV-2 Mpro (3CLpro) is 1580 nM and 1590 nM. In addition, in data set [1], the EC50 was more than 20000 nM.
Compound `O=c1[nH]cccc1-c1cn(-c2cc(Cl)cc(OCC3CC3)c2)c(=O)n(-c2cccnc2)c1=O` [Compound 35] gave a CC50 in “in vitro” of more than 100000 nM. Moreover, the IC50 on SARS-CoV-2 Mpro (3CLpro) was determined as 100 nM. The EC50 in data set [1] is 820 nM.
`O=c1[nH]cccc1-c1cn(-c2cc(Cl)cc(OCc3scnc3C(F)(F)F)c2)c(=O)n(-c2cccnc2)c1=O` [Compound 37] registered a CC50 in the data set “in vitro” of more than 100000 nM. Also, the concentration for half-maximal inhibition (IC50) on SARS-CoV-2 Mpro (3CLpro) was determined as 43 nM. For the same compound, in data set [1], the EC50 was found to be 2400 nM.
Taken in the same sequence, the figures for `O=c1[nH]cccc1-c1cn(-c2cc(Cl)cc(OCc3nc4ccccc4n3C(F)F)c2)c(=O)n(-c2cccnc2)c1=O` [Compound 38] were more than 100000 nM, 21 nM and 1890 nM.
For `Cc1scnc1COc1cc(Cl)cc(-n2cc(-c3ccc[nH]c3=O)c(=O)n(-c3cccnc3)c2=O)c1` [Compound 39], in that order: more than 100000 nM, 17 nM and 5000 nM.
Taken in the same sequence, the figures for `Cc1nc(C)c(COc2cc(Cl)cc(-n3cc(-c4ccc[nH]c4=O)c(=O)n(-c4cccnc4)c3=O)c2)s1` [Compound 40] were more than 100000 nM, 16 nM and 10200 nM.
In “in vitro”, `O=c1[nH]cccc1-c1cn(-c2cc(Cl)cc(OCc3nccn3C(F)F)c2)c(=O)n(-c2cccnc2)c1=O` [Compound 41] had a CC50 of more than 100000 nM. For the same compound, the “MLM percentage remaining after 30 min” value in data set [2] (3 μM, 37 °C, 30 min) is 22.8% and 22.79%. In addition, the half-life at 3 µM was 14.7 min in data set [2] (CD-1, mouse, microsomes); more than 30 min in data set [3] (Sprague-Dawley, rat, microsomes, RLM t1/2, 3 μM, unit inferred); more than 30 min in data set [4] (human, microsomes). The fraction remaining at 5 min, 3 µM in data set [2] (CD-1, mouse, microsomes) came out at 63.8%; in data set [3] (Sprague-Dawley, rat, microsomes, RLM Rel % remaining, 5 min), 97.6%; in data set [4] (human, microsomes), 94.5%. The share remaining at 10 min, 3 µM was 50.2% in data set [2] (CD-1, mouse, microsomes); 95.2% in data set [3] (Sprague-Dawley, rat, microsomes, RLM Rel % remaining, 10 min); 84.4% in data set [4] (human, microsomes). The amount remaining at 0.25 h, 3 µM in data set [2] (CD-1, mouse, microsomes) turned out to be 37.7%; in data set [3] (Sprague-Dawley, rat, microsomes, RLM Rel % remaining, 15 min) it was 93.9%; in data set [4] (human, microsomes), 66.4%. Besides, at SARS-CoV-2 Mpro (3CLpro), the IC50 was found to be 13 nM. Besides, the EC50 in data set [1] is 6760 nM. Also, in data set [3] (3 μM, 30 min), the “RLM percentage remaining after 30 min” value was 90.2% and 90.17%. For the same compound, in data set [4] (3 μM, 37 °C, 30 min), the “HLM percentage remaining after 30 min” value is 70.7%.
Take `Cn1c([N+](=O)[O-])cnc1COc1cc(Cl)cc(-n2cc(-c3ccc[nH]c3=O)c(=O)n(-c3cccnc3)c2=O)c1` [Compound 42]: in the data set “in vitro”, the CC50 was more than 100000 nM. In addition, the IC50 at SARS-CoV-2 Mpro (3CLpro) was determined as 12 nM. For the same compound, in data set [1], the concentration for a half-maximal effect (EC50) was 19300 nM.
In “in vitro”, `Cn1cc(COc2cc(Cl)cc(-n3cc(-c4ccc[nH]c4=O)c(=O)n(-c4cccnc4)c3=O)c2)c(C(F)(F)F)n1` [Compound 44] displayed a CC50 of more than 100000 nM. Besides, on SARS-CoV-2 Mpro (3CLpro), the “IC50 range in words” value is on record as “single-digit nanomolar range” and the IC50 turned out to be 5.6 nM. Further, in data set [1], the EC50 is 3300 nM.
As to `Cc1scnc1COc1cc(Cl)cc(-n2cc(-c3ccc(=O)[nH]c3)c(=O)n(-c3cccnc3)c2=O)c1` [Compound 51], the CC50 in “in vitro” was more than 100000 nM. The IC50 at SARS-CoV-2 Mpro (3CLpro) stood at 120 nM. In addition, the EC50 in data set [1] is more than 20000 nM.

The values above are taken from article PMC10577883, “Design and Optimization of Novel Competitive, Non-peptidic, SARS-CoV-2 M^pro Inhibitors” (ACS Medicinal Chemistry Letters, 2023).
